# Test system: HIV-1 (strain IIIB)
# Assay: MT4 Cell Assay (antiviral HIV activity, propidium iodide or MTS readout)
# Format: cell-based
# Details: Human immunodeficiency virus 1, IIIB, expected range for the control and standard, tested in every assay, MT4 cells
# Experimental: Antiviral HIV activity and compound-induced cytotoxicity were measured in parallel by means of a propidium iodide based procedure in the human T-cell lymphotropic virus transformed cell line MT4. Aliquots of the test compounds were serially diluted in medium (RPMI 1640, 10% fetal calf serum (FCS), and gentamycin) in 96-well plates (Costar 3598) using a Cetus Pro/Pette. Exponentially growing MT4 cells were harvested and centrifuged at 1000 rpm for 10 min in a Jouan centrifuge (model CR 4 12). Cell pellets were resuspended in fresh medium (RPMI 1640, 20% FCS, 20% IL-2, and gentamycin) to a density of 5×10^5 cells/ml. Cell aliquots were infected by the addition of HIV-1 (strain IIIB) diluted to give a viral multiplicity of infection of 100× TCID50. […]
# A. For propidium iodide readout, 27 μl of 5% Nonidet40 was added to each well of the incubation plate. […] The plates were analyzed in an automated assay instrument (Screen Machine, Idexx Laboratories). […]
# B. For MTS readout, 20 μl CellTiter 96 AQ One Solution reagent (Promega #G3582) was added to each well. At 75 minutes following the addition of MTS reagent, absobance was read at 492 nm using a Tecan Sunrise 96-well plate reader. […]
# For each assay plate, the results (relative fluorescence units, rfU, or OD values) of wells containing uninfected cells or infected cells with no compound were averaged, respectively. […]
smiles,measurement,value
Cc1cn([C@H]2C[C@H](N=[N+]=[N-])[C@@H](CO)O2)c(=O)[nH]c1=O [3′-azido-3′-deoxythymidine],IC50,40 to 120 nM

# Reference: patent US7812016B2, “Naphthyridine integrase inhibitors” (SmithKline Beecham Corporation, priority 2003, dated 2010)
